{
  "source": "paper PMC11183791",
  "about": "“Vancomycin population pharmacokinetics and dosing proposal for the initial treatment in obese adult patients” (Frontiers in Pharmacology, 2024)",
  "key": {"[1]": {"test": "Vancomycin trough serum levels after loading dose with and without the guidance of clinical pharmacists (TDM, KIMS immunoturbidimetry)", "assay_type": "in vivo, human", "procedure": "The lower limits of detection and quantitation were 1.5 and 4.0 mg/L, respectively, and the measuring range was from 4.0 to 80.0 mg/L. Only levels measured during initial vancomycin therapy (first 3 days of treatment) were included in the PK analysis. If available, the MIC value of vancomycin for the isolated bacterial strain was also recorded.\nVancomycin t1/2 was calculated from Vd and clearance (CL) values using the following formula: t1/2 = 0.693 × Vd/CL. Descriptive parameter medians and interquartile range (IQR) were calculated using MS Excel 2013 (Microsoft Corporation, Redmond, United States). The Mann–Whitney U-test was used to compare vancomycin loading doses (LDs)with and without the guidance of clinical pharmacists and compare trough levels reached after loading dose administration. The linear regression model was used to evaluate the relationships between vancomycin PK parameters (Vd and CL) and continuous variables (BW, LBM, BSA, BMI, creatinine, and cystatin C-based eGFR). GraphPad Prism software version 8.2.1 (GraphPad Inc., La Jolla, CA, USA) was used for all comparisons, and p-levels <0.05 were considered statistically significant."}, "[2]": {"tested_on": "isolated bacterial strain (Staphylococcus spp., Enterococcus spp., Klebsiella pneumoniae, Streptococcus agalactiae)", "conditions": "isolated bacterial strains of the study patients"}, "[3]": {"conditions": "cited from earlier work"}, "[4]": {"conditions": "bootstrap analysis, 250 replicates"}, "[5]": {"conditions": "obese adults (BMI ≥30 kg/m^2), n = 138, iv infusion, first 3 days of treatment, one-compartment model"}},
  "data": [
    {"compound": "CN[C@H](CC(C)C)C(=O)N[C@H]1C(=O)N[C@@H](CC(N)=O)C(=O)N[C@H]2C(=O)N[C@H]3C(=O)N[C@H](C(=O)N[C@H](C(=O)O)c4cc(O)cc(O)c4-c4cc3ccc4O)[C@H](O)c3ccc(c(Cl)c3)Oc3cc2cc(c3O[C@@H]2O[C@H](CO)[C@@H](O)[C@H](O)[C@H]2O[C@H]2C[C@](C)(N)[C@H](O)[C@H](C)O2)Oc2ccc(cc2Cl)[C@H]1O", "note": "[vancomycin, Vancomycin]", "values": [
      {"measurement": "CL_pop, bootstrap median (95% CI)", "setting": "[4]", "value": "1.27 (1.24–1.31) L/h"},
      {"measurement": "Vd_pop, bootstrap median (95% CI)", "setting": "[4]", "value": "79.3 (77.8–80.9) L"},
      {"measurement": "β_CL_LBM, bootstrap median (95% CI)", "setting": "[4]", "value": "0.011 (0.0108–0.0113) kg"},
      {"measurement": "β_CL_eGFR, bootstrap median (95% CI)", "setting": "[4]", "value": "0.61 (0.60–0.63) mL/s/1.73 m^2"},
      {"measurement": "CL, median (interquartile range) of individual estimates (conditional modes)", "setting": "[5]", "value": "6.65 (4.95–8.42) L/h"},
      {"measurement": "Vd, median (interquartile range) of individual estimates (conditional modes)", "setting": "[5]", "value": "74.0 (70.5–75.4) L"},
      {"measurement": "elimination half-life t1/2, median (interquartile range) of individual estimates", "setting": "obese adults, n = 138, t1/2 = 0.693 × Vd/CL", "value": "7.7 (6.0–10.0) h"},
      {"measurement": "t1/2 corresponding to estimated CL and Vd of 75 L", "setting": "patient with LBM of 68 kg and eGFR of 1.51 mL/s/1.73 m^2", "value": 7.4, "unit": "h"},
      {"measurement": "CL estimated from the final covariate equation", "setting": "patient with LBM of 68 kg and eGFR of 1.51 mL/s/1.73 m^2 (median values of the study population)", "value": 7, "unit": "L/h"},
      {"measurement": "Vd_pop, final model estimate", "setting": "typical value of parameter, final covariate population PK model, obese adults", "value": 75.0, "unit": "L"},
      {"measurement": "CL_pop, final model estimate", "setting": "typical value, CL=CL_pop×e^(β_CL_eGFR×eGFR)×e^(β_CL_LBM×LBM)", "value": 1.32, "unit": "L/h"},
      {"measurement": "median trough level after LD relative to the recommended therapeutic range (15–20 mg/L)", "setting": "[1]; LD with the guidance of clinical pharmacists", "value": "in"},
      {"measurement": "median trough level after LD relative to the recommended therapeutic range (15–20 mg/L)", "setting": "[1]; LD without the guidance of clinical pharmacists", "value": "out of the recommended therapeutic range"},
      {"measurement": "MIC, median (min–max)", "setting": "[2]", "value": "1 (≤0.5–2) mg/L"},
      {"measurement": "MIC, modus", "setting": "[2]", "value": 1, "unit": "mg/L"},
      {"measurement": "elimination half-life (t1/2)", "setting": "[3]; can be prolonged in renal insufficiency, ref Rybak, 2006", "value": "6 to 12", "unit": "h"},
      {"measurement": "distribution half-life", "setting": "[3]; ref Matzke et al., 1986", "value": "approximately 7 min"},
      {"measurement": "distribution phase duration", "setting": "[3]; ref Matzke et al., 1986", "value": "approximately 0.5 h"},
      {"measurement": "absorption after oral administration", "setting": "[3]; ref Rybak et al., 2009", "value": "not absorbed efficiently"},
      {"measurement": "portion of dose excreted unchanged via glomerular filtration", "setting": "[3]; ref Rybak, 2006", "value": "majority"},
      {"measurement": "contribution of the distribution phase to total vancomycin exposure", "setting": "[3]; ref Shingde et al., 2019", "value": "< 10", "unit": "%"}
    ]}
  ]
}
